Laboratory results published in article PMC2375353, “Effective treatment of experimental U-87MG human glioblastoma in nude mice with a targeted cytotoxic bombesin analogue, AN-215” (British Journal of Cancer, 2002).
Where “and” joins values, the source holds several entries; their conditions need not be identical. Equal entries are not always repeated. Entries after “also recorded” stand apart in the source; their conditions may differ.

Experiments:
[1] = system: U-87MG human glioblastoma xenografted into nude mice; assay: Experiment 1: growth of s.c. U-87MG xenografts in nude mice; assay type: in vivo, human tumour in male athymic nude mice; conditions: for Final tumour volume / Final tumour volume, % inhibition / Tumour weight, % inhibition / Tumour doubling time: 150 nmol kg^-1 i.v. days 1, 8, 15, 22; for Final tumour volume / Final tumour volume, % inhibition / Tumour weight, % inhibition: day 29; for Final tumour volume / Tumour doubling time: mean±s.e.; for Final tumour volume: control 3201.5±375.7; for Final tumour volume, % inhibition / Tumour weight, % inhibition: vs control; for Antitumour effect / Tumour doubling time: experiment 1; for Antitumour effect: 150 nmol kg^-1 i.v.; for Tumour doubling time: day 1 to 29, control 4.5±0.2
Method: (§1) Human glioblastoma cell line U-87MG was obtained from American Type Culture Collection (Manassas, VA, USA) and cultured as described ([Pinski et al, 1994]). Male athymic (Ncr nu/nu) nude mice, approximately 6-weeks-old on arrival, were obtained from the National Cancer Institute (Frederick Cancer Research and Development Center, Frederick, MD, USA), and housed in laminar air-flow cabinets under pathogen-free conditions with a 12 h light/12 h dark schedule, and fed autoclaved standard chow and water ad libitum. Xenografts were initiated by s.c. injection of 12×10^6 U-87MG cells into the right flanks of five male nude mice. Tumours resulting after 2 weeks were aseptically dissected, mechanically minced, and 3-mm^3 pieces of tumour tissue were transplanted s.c. with a trocar needle. The take rate was 100%. All experiments were performed in accordance with institutional ethical guidelines of animal care and were essentially in agreement with [UKCCCR guidelines (1998)] for the welfare of animals in experimental neoplasia.
Experiment 1 was started when tumours had grown to approximately 40 mm^3 in volume. Animals were randomly divided into three treatment groups: group 1(10 mice), control, which received vehicle solution; group 2 (10 mice), injected with cytotoxic radical AN-201; group 3 (11 mice), given cytotoxic BN analogue AN-215. Cytotoxic compounds were injected through the jugular vein at a dose of 150 nmol kg^−1 of body weight (BW) on days 1, 8, 15 and 22. Tumour volume (length×width×height×0.5236) and BW were measured twice a week. The experiment was terminated on day 29. […] Tumours were excised and weighed. Tumour specimens were snap-frozen and stored at −70°C until extraction of RNA for reverse transcription-polymerase chain reaction (RT–PCR). Tumour volume doubling time was calculated between day 1 and 29 using the formula: […]
as described by [Smolev et al (1977)].
(§2) Data are expressed as mean±s.e. Differences between mean values were evaluated by two-tailed Student's t-test, P<0.05 being considered significant.

[2] = system: hNMBR/BRS-2; assay: RT-PCR of hNMBR/BRS-2 mRNA in U-87MG tumours; assay type: in vivo, human; conditions: experiment 1 tumours; normalised vs hGAPDH; control 7.6±3.5
Method: (§3) Total RNA was extracted from frozen tissue samples by using RNAzolB (Tel-Test, Friendswood, TX, USA) according to the manufacturer's instructions. Concentrations of total RNA were calculated by measuring the OD260 value. Total RNA (4 μg) was subjected to electrophoresis for 2 h at 70 V in 10 μl of sample buffer containing 1× MOPS buffer (pH 6.5), 6.4% formaldehyde, 48% deionized formamide, 0.25% w v^−1 bromophenol blue, 0.05% glycerol and 0.25 mg ml^−1 ethidium bromide. The RNA gel contained 1.4% agarose, 1×MOPS (pH 6.5) and 1.73% formaldehyde.
(§4) The RT–PCR was performed using Gene Amp RNA Core Kit (Perkin-Elmer, Foster City, CA, USA). To avoid genomic DNA contamination, all samples were subjected to DNase digestion before RT–PCR. RNA (2 μg) was treated with 0.3 unit of RQ1 RNase-free DNase (Promega, Madison, WI, USA) at 37°C for 30 min in 19 μl of mixture containing 5 mM MgCl2, 1× PCR buffer, 1 mM of each dNTP, 1 unit RNase inhibitor and 2.5 μM random hexamers. The reaction was terminated by enzyme denaturation at 99°C for 5 min. […]
(§5) The PCR amplification of the cDNAs for human glyceraldehyde-3-phosphate dehydrogenase (hGAPDH), GRP receptor (hGRPR, BRS-1) and neuromedin-B receptor (hNMBR, BRS-2) was performed as follows. […] The number of cycles was determined in preliminary experiments to be within the exponential range of PCR amplification.

[3] = system: hGRPR/BRS-1; assay: RT-PCR of hGRPR/BRS-1 mRNA in U-87MG tumours; assay type: in vivo, human; conditions: experiment 1 tumours; normalised vs hGAPDH; control 15.1±1.5; change not significant
Method: as §3, §4, §5

[4] = system: BN receptors on membrane preparations from U-87MG tumours; assay: 125I-[Tyr4]BN binding characteristics (Kd, Bmax) of BN receptors on U-87MG tumour membranes; design: species or system human; conditions: AN-215-treated vs control
Method: Binding characteristics of BN receptors on membrane preparations from U-87MG tumours were determined by ligand competition assays using ^125I-labelled [Tyr^4]BN, as reported earlier ([Halmos and Schally, 1997]). […] IC50 value was calculated with a computerized curve fitting programme and is defined as the concentration of AN-215 causing a 50% inhibition of ^125I-[Tyr^4]BN binding.

[5] = system: U-87MG human glioblastoma xenografted into nude mice; assay: Experiment 2: growth of s.c. U-87MG xenografts, with BN receptor blockade; assay type: in vivo, human tumour in male athymic nude mice
Method: as §1
Experiment 2 was started when U-87MG tumours had grown to 70–84 mm^3 in volume. The animals were divided into the following treatment groups: group 1 (10 mice), control, vehicle solution; group 2 (10 mice), analogue AN-215; group 3 (five mice), unconjugated mixture of the cytotoxic radical AN-201 and BN antagonist RC-3095. All compounds were injected i.v. at 150 nmol kg^−1 of BW on days 1, 10, and 17. In addition, one group of tumour-bearing mice received an i.v. injection of 200 μg of BN antagonist RC-3095 15 min before each administration of AN-215 at a dose of 150 nmol kg^−1 of BW on days 1, 10 and 17 as in the case of group 2. The experiment was terminated on day 20 as described above.
as §2

[6] = RC-3095 200 μg/mouse i.v. 15 min before AN-215 150 nmol kg^-1 days 1, 10, 17

Compound | Final tumour volume [1] | Final tumour volume, % inhibition [1] | Tumour weight, % inhibition [1] | Antitumour effect [1] | Tumour doubling time [1] | hNMBR/BRS-2 mRNA expression [2] | hGRPR/BRS-1 mRNA expression [3] | Effect of treatment on binding characteristics of receptors for BN/GRP [4] | Tumour doubling time ([5]; 150 nmol kg^-1 i.v. days 1, 10, 17, 20 days, no pretreatment, control 4.5±0.2) | Antitumour effect after BN receptor blockade ([5]; RC-3095 200 μg i.v. 15 min before AN-215 150 nmol kg^-1) | Growth inhibition after RC-3095 pretreatment [5, 6] | Tumour doubling time after RC-3095 pretreatment [5, 6]
COc1cccc2c1C(=O)c1c(O)c3c(c(O)c1C2=O)C[C@@](O)(C(=O)CO)C[C@@H]3O[C@H]1C[C@H](N2C=CCC2)[C@H](O)[C@H](C)O1 [AN-201, 2-pyrrolino-doxorubicin] | 2353.7±506.7 mm^3 | 26% | 13.2% | ineffective | 5.9 ± 1.4 days | 10.9±3.6 a.u. | 21.6±3.4 a.u. |  |  |  |  | 
Gln-Trp-Ala-Val-Gly-His-Leu-ψ(CH2-NH)-Leu-NH2 [AN-215] | 971.5±227.9 mm^3 | 69.6% | 64.6% | strong tumour growth inhibition | 8.18±1.8 days and 8.2±1.8 days and 8.2±1.8^c days | 3.3±1.0 a.u. | 25.4±5.1 a.u. | did not affect the binding characteristics | 6.6 ± 1.0 days | could be blocked by pretreatment with an excess of a bombesin antagonist; also recorded: non-significant growth inhibition of U-87MG glioblastomas | 22% | 4.7 ± 02 days
